What was measured:
[1] = system: CT26 cells; test: MTT assay, photodynamic therapy on CT26 cells; format: cell-based, murine
From the text: (§1) The cells in logarithmic growth phase were collected and inoculated on 24-well culture plates. When reaching 70%-80% confluence, cells were divided randomly into the following groups: control (the parallel control group without photosensitizer and irradiation), irradiation (irradiation treatment alone without photosensitizer); (photosensitizer treatment alone without irradiation), photodynamic treatment (treatment by photosensitizer in combination with irradiation). For the photosensitizer alone treatment group and photodynamic treatment group, an appropriate amount of Photohexer-1 (P-1) or Photohexer-2 (P-2) was respectively added away from light to give a final concentration of 0.8, 1.6, 3.2, 6.4 μM. Each group set 3 replicates. Cells were incubated with the active agent, different treatments were carried out according to the grouping. […] After treatment and digestion of each group of cells, it was inoculated into a 96-well plate at 100 μL/well, and four wells were set for each treatment. MTT assay was performed after 24 h from inoculation: 20 μL MTT solution was added to each well under the condition away from light, and the culture was continued for 4 hours. 150 μL DMSO was added to each well after discarding the supernatant. After 15 min of dissolution, the absorbance value (OD value) was measured using a microplate reader and the relative survival rate of cells was calculated according to the following formula: […]

[2] = system: MCF-7/ADR cells; test: MTT assay, photodynamic therapy on MCF-7/ADR cells; format: cell-based, human
From the text: as §1

[3] = Solubility determination in water; format: physicochemical; conditions: each ml of water; room temperature; read-out: solubility in water (amount dissolved by each ml of water)
Description: The solubility of Photohexer-1 and Photohexer-2 in water was determined by conventional methods in the art.

[4] = system: SW-620 cells; test: MTT assay, photodynamic therapy on SW-620 cells; format: cell-based, human
From the text: as §1

[5] = system: SGC7901 cells; test: MTT assay, photodynamic therapy on SGC7901 cells; format: cell-based, human
From the text: as §1

[6] = 0.8 μM alone treatment, without irradiation
[7] = 0.8 μM combined with 2.6 J/cm^2 light irradiation
[8] = 0.8 μM combined with 5.2 J/cm^2 light irradiation
[9] = 0.8 μM combined with 10.4 J/cm^2 light irradiation
[10] = 1.6 μM alone treatment, without irradiation
[11] = 1.6 μM combined with 2.6 J/cm^2 light irradiation
[12] = 1.6 μM combined with 5.2 J/cm^2 light irradiation
[13] = 1.6 μM combined with 10.4 J/cm^2 light irradiation
[14] = 3.2 μM alone treatment, without irradiation
[15] = 3.2 μM combined with 2.6 J/cm^2 light irradiation
[16] = 3.2 μM combined with 5.2 J/cm^2 light irradiation
[17] = 3.2 μM combined with 10.4 J/cm^2 light irradiation
[18] = 6.4 μM alone treatment, without irradiation
[19] = 6.4 μM combined with 2.6 J/cm^2 light irradiation
[20] = 6.4 μM combined with 5.2 J/cm^2 light irradiation
[21] = 6.4 μM combined with 10.4 J/cm^2 light irradiation

C=CC1=C(C)c2cc3[nH]c(cc4nc(cc5[nH]c(cc1n2)c(C)c5CCC(=O)[O-])C(CCC(=O)[O-])=C4C)c(C)c3C(C)OCCCCCC.[Na+].[Na+] (centres unmarked) [Photohexer P-1, 2-(1-hexyloxyethyl)-6,7-bis(propionatesodium)-1,3,5,8-tetramethyl-4-vinylporphyrin]
toxic side effects compared between P-1 and P-2 [1]: higher than those of P-2 | Cell survival rate [1, 6]: 93.23 ± 3.43% | Cell survival rate [1, 7]: 91.63 ± 3.46% | Cell survival rate [1, 8]: 82.12 ± 4.98% | Cell survival rate [1, 9]: 82.39 ± 4.63% | Cell survival rate [1, 10]: 87.15 ± 2.45% | Cell survival rate [1, 11]: 62.86 ± 2.29% | Cell survival rate [1, 12]: 55.88 ± 2.95% | Cell survival rate [1, 13]: 44.00 ± 3.29% | Cell survival rate [1, 14]: 56.13 ± 1.69% | Cell survival rate [1, 15]: 49.48 ± 2.06% | Cell survival rate [1, 16]: 44.86 ± 1.57% | Cell survival rate [1, 17]: 41.00 ± 2.66% | Cell survival rate [1, 18]: 44.05 ± 1.26% | Cell survival rate [1, 19]: 36.03 ± 1.17% | Cell survival rate [1, 20]: 30.01 ± 1.07% | Cell survival rate [1, 21]: 28.55 ± 1.47% | cell toxicity [2]: significant cell toxicity | Cell survival rate [2, 6]: 100.36 ± 3.70% | Cell survival rate [2, 7]: 55.89 ± 3.97% | Cell survival rate [2, 8]: 41.47 ± 4.88% | Cell survival rate [2, 9]: 37.45 ± 4.34% | Cell survival rate [2, 10]: 93.95 ± 2.47% | Cell survival rate [2, 11]: 53.43 ± 2.96% | Cell survival rate [2, 12]: 38.42 ± 2.51% | Cell survival rate [2, 13]: 32.58 ± 3.54% | Cell survival rate [2, 14]: 81.01 ± 1.58% | Cell survival rate [2, 15]: 50.99 ± 2.31% | Cell survival rate [2, 16]: 36.95 ± 1.89% | Cell survival rate [2, 17]: 31.79 ± 2.65% | Cell survival rate [2, 18]: 46.84 ± 1.02% | Cell survival rate [2, 19]: 45.48 ± 1.04% | Cell survival rate [2, 20]: 33.47 ± 1.41% | Cell survival rate [2, 21]: 27.27 ± 1.07% | solubility [3]: ~3300 µg/mL | Cell survival rate [4, 6]: 101.33 ± 3.20% | Cell survival rate [4, 7]: 100.74 ± 3.46% | Cell survival rate [4, 8]: 99.53 ± 3.71% | Cell survival rate [4, 9]: 94.65 ± 4.04% | Cell survival rate [4, 10]: 100.99 ± 2.47% | Cell survival rate [4, 11]: 96.64 ± 2.79% | Cell survival rate [4, 12]: 91.84 ± 2.97% | Cell survival rate [4, 13]: 87.51 ± 3.16% | Cell survival rate [4, 14]: 98.23 ± 1.59% | Cell survival rate [4, 15]: 91.39 ± 2.18% | Cell survival rate [4, 16]: 87.50 ± 1.69% | Cell survival rate [4, 17]: 82.58 ± 2.31% | Cell survival rate [4, 18]: 94.83 ± 1.09% | Cell survival rate [4, 19]: 86.70 ± 1.07% | Cell survival rate [4, 20]: 75.53 ± 1.03% | Cell survival rate [4, 21]: 68.33 ± 1.11% | Cell survival rate [5, 6]: 100.39 ± 0.20% | Cell survival rate [5, 7]: 90.25 ± 2.16% | Cell survival rate [5, 8]: 92.41 ± 0.63% | Cell survival rate [5, 9]: 92.26 ± 1.16% | Cell survival rate [5, 10]: 99.22 ± 1.37% | Cell survival rate [5, 11]: 91.19 ± 2.89% | Cell survival rate [5, 12]: 92.29 ± 0.15% | Cell survival rate [5, 13]: 89.21 ± 0.24%

From patent US20170252442A1, “PHOTOHEXER COMPOUNDS AND PHARMACEUTICAL COMPOSITION AND USE THEREOF” (RAINBOW PHARMATECH LLC, priority 2014, published 2017)
